According to patent US20260226089A1, “METHOD FOR CONTROLLING IMPURITIES IN L-ARABINOSE AND USE THEREOF” (THOMSON BIOTECH (XIAMEN) PTE. LTD., priority 2023, published 2026):

Experiments:
constipation model rats = test: Therapeutic effect on constipation model rats (modeling with compound diphenoxylate); type: in vivo, rat; conditions: n = 8; for Time for first dark stools min: first administration with 5% activated carbon; for Time for first dark stools min / Small intestine propulsion rate %: x ± sd; for Small intestine propulsion rate %: gavage once daily; for Water content of stools %: stools collected on day 7, x ± sd
Text: • Modeling procedure: modeling with compound diphenoxylate. • Experimental drugs and reagents: activated carbon (5%); a 0.4 g/mL aqueous solution prepared from an arabinose drug. • Positive control: PEG (Shutaiqing). SPF-grade rats (Zhejiang Vital River Laboratory Animal Technology Co., Ltd.).
Except for the normal group, the successfully modeled rats were randomly divided into 5 groups, including a model group, a low dose group, a medium dose group, a high dose group, and a positive control group, 8 animals per group. Each rat was housed individually in separate cages, and operations were conducted fixedly at 10:00-12:00 every day. The normal group and the model group were gavaged with 0.2 mL of purified water. The positive control group was gavaged with 0.133 mL of a mosapride solution, and the low dose group, the medium dose group, and the high dose group were gavaged with 0.01 mL, 0.02 mL, and 0.04 mL of the test drug, respectively, with the volume adjusted to 0.2 mL using purified water. The rats had free access to food and water. The administration was performed for 7 consecutive days (times).
For the first administration, the drug with 5% activated carbon (based on 0.2 g×5%) added was intragastrically administered to the treatment group, and 0.2 mL of purified water with activated carbon added was intragastrically administered to the normal group and the model group. The time for the first dark stools was recorded.
The rats were intragastrically administered once daily. On day 7 after the continuous administration, the stools were collected using a sterile centrifuge tube and stored at −100° C. The collected stools were dried at 105° C. to a constant weight, and the water content of the stools was calculated according to the formula: water content of stools=(1−mass after drying/mass before drying)×100%.
The rats were intragastrically administered once daily for 14 days and then fasted for 12 h. 1 h after the last administration, each group of animals was gavaged with 0.15 mL of 5% activated carbon, and 30 min later, the rats were anesthetized with an intraperitoneal injection of 10% chloral hydrate. After anesthesia was completed, the abdominal operation was immediately performed. The intestinal canal from pylorus to ileocecal junction was cut off and placed on a glass plate. The length of the intestinal tract traversed by the ink and the total length of the intestinal tract were measured. The intestinal propulsion rate was the ratio of the two. The total length from pylorus to ileocecal junction and the distance from pylorus to the front of the carbon ink were measured, and the carbon ink propulsion percentage was calculated. Intestinal propulsion rate=distance from front of carbon ink to pylorus/full length of small intestine×100%.

SPF-grade rats = test: Rat bowel preparation experiment (bowel cleansing effect); type: in vivo
Text: Experimental materials: L-arabinose, selected from the L-arabinose crystallization sample with batch No. 1221 in the example, prepared into a 0.4 g/mL solution with purified water; PEG (Shutaiqing), prepared into a 0.521 g/mL PEG solution with purified water; SPF-grade rats (Zhejiang Vital River Laboratory Animal Technology Co., Ltd.). • 5.1. Experimental animals and feeding thereof: SPF (specific pathogen free)-grade rats (200±10 g), 6 weeks old; normal feed was D12450-B feed: 67.35 wt % carbohydrates, 19.2 wt % crude protein, and 4.3 wt % fat. The temperature of the room was kept at 24° C. to 26° C. with humidity at 40% to 60%. • 5.2. Experimental method and procedures:
The SPF-grade rats were randomly divided into a blank control group, a positive control group, and a treatment group, 10 animals per group, half being male and half female. Administration method: Animals in each group were fasted (water was accessible) starting at 22:00 the night before experiment, were each given ½ the calculated amount of drug by intragastrical administration at 7:00 and 9:00 on the day of experiment, were each given 2.0 mL of purified water at 12:00 and 13:00, and were dissected 3.5 h after the last administration.

Row | SMILES | Time for first dark stools min (constipation model rats; Positive control 2.0 mg kg/d) [min] | Small intestine propulsion rate % (constipation model rats; Positive control 2.0 mg kg/d) | Water content of stools % (constipation model rats; Positive control 2.0 mg kg/d) | Dosage relative to that administered to the positive control group to achieve the same effect (SPF-grade rats; 9 g/kg L-arabinose vs 21.9 g/kg PEG) [%] | Stools observed before the dissection (SPF-grade rats; L-arabinose batch No. 1221, 9 g/kg (22.5 mL/kg) intragastric in 2 doses, fasted rats) | Residue in the rectum and colon after the dissection (SPF-grade rats; L-arabinose batch No. 1221, 9 g/kg intragastric in 2 doses, dissected 3.5 h after last administration) | Time for first dark stools min (constipation model rats; High dose 0.80 g kg/d) [min] | Small intestine propulsion rate % (constipation model rats; High dose 0.80 g kg/d) | Water content of stools % (constipation model rats; High dose 0.80 g kg/d) | Time for first dark stools min (constipation model rats; Low dose 0.20 g kg/d) [min] | Small intestine propulsion rate % (constipation model rats; Low dose 0.20 g kg/d) | Water content of stools % (constipation model rats; Low dose 0.20 g kg/d) | Time for first dark stools min (constipation model rats; Medium dose 0.40 g kg/d) [min] | Small intestine propulsion rate % (constipation model rats; Medium dose 0.40 g kg/d) | Water content of stools % (constipation model rats; Medium dose 0.40 g kg/d)
1 | CCOc1cc(N)c(Cl)cc1C(=O)NCC1CN(Cc2ccc(F)cc2)CCO1 (stereo not drawn) [Positive control, reference compound] | 67 ± 8.8 | 82% ± 4.4 | 57% ± 0.9 | – | – | – | – | – | – | – | – | – | – | – | –
2 | O=C[C@H](O)[C@@H](O)[C@@H](O)CO [L-arabinose, L-Arabinose] | – | – | – | 41 | Watery and loose stools | no residue was left in the rectum and colon | 63 ± 5.7 | 83% ± 2.8 | 61% ± 2.4 | 76 ± 8.5 | 75% ± 3.1 | 54% ± 1.8 | 64 ± 6.2 | 80% ± 2.7 | 59% ± 2.7
